Results from patent US20230094952A1, “Method for Culturing Hematopoietic Stem Cells” (Sumitomo Pharma Co., Ltd., priority 2019, published 2023).

Test system: mouse long-term hematopoietic stem cells
Assay: Reproducibility and concentration dependence test: 1-week culture of sorted Hoxb5-tri-mCherry mouse long-term hematopoietic stem cells, flow cytometry
Type: cell-based
Details: day 7 of culture, n=2
Protocol: Mice with insertion of a nucleic acid sequence containing three copies of a gene encoding the fluorescent protein mCherry to the C terminus of the mouse endogenous HoxB5 gene (Hoxb5-tri-mCherry) were used (triple-mCherry Hoxb5 knock-in mice; Non Patent Literature 1). The mice were housed under environmental conditions such that the room temperature and the humidity were 20 to 26° C. and 40 to 70%, respectively, under light for 12 hours and under dark for 12 hours (illumination: 8:00 a.m. to 8:00 p.m.).
Bone marrow cells were collected from the tibia, femur, humerus, and pelvis in each side of each of the mice, and gathered in a mortar. A buffer obtained by adding thermally deactivated bovine serum (manufactured by Gibco) at a final concentration of 2% and EDTA at a final concentration of 2 mM to Ca^2+-free and Mg^2+-free PBS was added, and the resultant was broken with a pestle to obtain a cell population including hematopoietic stem cells.
First, the thus-obtained cell population including hematopoietic stem cells was passed through strainers (meshes) of 100 μm, 70 μm, and 40 μm. The cell population was stained with an APC-binding anti-c-Kit (2B8) and fractionated with anti-APC magnetic beads and an LS column (both manufactured by Miltenyi Biotec) to obtain a cell population enriched with hematopoietic stem cells and progenitor cells.
Subsequently, cells being c-Kit-positive were stained with antibodies for the following cell surface markers.
Staining with the antibodies was performed at 4° C., and the cells were incubated for 30 minutes. For staining with the CD34 antibody, the cells were incubated for 90 minutes. Dead cell staining was performed with SYTOX Red Dead Cell Stain (manufactured by Life Technologies) in accordance with a method recommended by the manufacturer.
Flow cytometry analysis and cell classification (cell sorting) were performed with a FACS Aria II cell sorter (manufactured by BD Biosciences), wherein Lineage-negative, c-Kit-positive, Sca-1-positive, Flk2-negative, CD34-negative or weakly CD34-positive, CD150-positive, and mCherry-positive fractions were regarded as long-term hematopoietic stem cells, and analysis was performed with the software FlowJo (manufactured by Tree Star, Inc.).
The cells after classification were seeded in a 96-well plate. A cell culture medium was prepared by adding Stem Cell Factor (SCF, manufactured by PeproTech, Inc.) and Thrombopoietin (TPO, manufactured by PeproTech, Inc.) to StemSpan SFEM culture medium (manufactured by […] Technologies Inc.) and added in advance to a cell culture 96-well plate (manufactured by BD Biosciences) at 100 μL/well, and the cells sorted with the FACS Aria II cell sorter (BD Biosciences) were then seeded at 10 cells/well.
[…] Thereafter, the cells were cultured in a CO2 incubator under conditions of 37° C. and 5% CO2 for 1 week.
After culture, the cells were stained with the antibodies for the surface markers c-Kit and Sca-1, Ter-119, B220, CD3, CD4, CD8a, Gr-1, and CD11b, and the ratio and post-growth cell count of a KLS fraction (c-Kit^+, Lin^−, Sca-1^+) or an mCherry-positive fraction given with use of a FACS Aria II cell sorter were analyzed by using FlowJo (BD Biosciences). The mCherry-positive fraction is a cell fraction expressing the Hoxb5 gene, and the KLS fraction is a cell fraction being c-Kit-positive, Lin-negative, and Sca-1-positive, and includes hematopoietic stem cells and multipotent progenitor cells as main components. […]

Structure (SMILES) | KLS-positive rate (Table 3, compound 0.1 μM) | Viable cell count (Table 3, compound 0.1 μM) | mCherry-positive rate (Table 3, compound 0.1 μM) | KLS-positive rate (Table 3, compound 0.3 μM) | Viable cell count (Table 3, compound 0.3 μM) | KLS-positive rate (Table 4, compound 0.1 μM) | Viable cell count (Table 4, compound 0.1 μM) | mCherry-positive rate (Table 4, compound 0.1 μM) | KLS-positive rate (Table 4, compound 0.3 μM) | Viable cell count (Table 4, compound 0.3 μM) | mCherry-positive rate (Table 4, compound 0.3 μM) | KLS-positive rate (Table 4, compound 1 μM) | Viable cell count (Table 4, compound 1 μM) | mCherry-positive rate (Table 4, compound 1 μM) | KLS-positive rate (Table 4, compound 3 μM) | Viable cell count (Table 4, compound 3 μM) | mCherry-positive rate (Table 4, compound 3 μM) | KLS-positive rate (Table 4, compound 10 μM) | Viable cell count (Table 4, compound 10 μM) | mCherry-positive rate (Table 4, compound 10 μM) | other results
CCO[C@H]1O[C@@H]2O[C@@]3(C)CC[C@H]4[C@H](C)CC[C@@H]([C@H]1C)[C@@]24OO3 [Example 1-31, artemotil, reference compound] | 28.85% | 1073 cell | 57.4% | 21.95% | 1529 cell | 26.5% | 201.5 cell | 84.9% | 19.7% | 194.0 cell | 96.3% | 62.3% | 19.5 cell | 98.3% | 87.5% | 2.5 cell | 100.0% | 25.0% | 1.5 cell | 50.0% | mCherry-positive rate (Table 3, compound 0.3 μM): 47.65%; KLS-positive rate (Table 3, compound 1 μM): 30.8%; Viable cell count (Table 3, compound 1 μM): 249 cell; mCherry-positive rate (Table 3, compound 1 μM): 92.85%; KLS-positive rate (Table 3, compound 3 μM): 66.65%; Viable cell count (Table 3, compound 3 μM): 8 cell; mCherry-positive rate (Table 3, compound 3 μM): 100%; KLS-positive rate (Table 3, compound 10 μM): 0%; Viable cell count (Table 3, compound 10 μM): 0 cell; mCherry-positive rate (Table 3, compound 10 μM): 0%
C[C@H]1[C@@H](O)O[C@@H]2O[C@@]3(C)CC[C@H]4[C@H](C)CC[C@@H]1[C@@]24OO3 [Example 1-29, artenimol, reference compound] | 8.92% | 1563 cell | 16.9% | 18% | 2268 cell | 19.4% | 469.5 cell | 13.3% | 13.7% | 215.0 cell | 6.0% | 11.3% | 248.0 cell | 3.9% | 80.0% | 4.5 cell | 100.0% | 50.0% | 0.5 cell | 50.0% | mCherry-positive rate (Table 3, compound 0.3 μM): 42.4%; KLS-positive rate (Table 3, compound 1 μM): 20.05%; Viable cell count (Table 3, compound 1 μM): 666.5 cell; mCherry-positive rate (Table 3, compound 1 μM): 84.8%; KLS-positive rate (Table 3, compound 3 μM): 0%; Viable cell count (Table 3, compound 3 μM): 0 cell; mCherry-positive rate (Table 3, compound 3 μM): 0%; KLS-positive rate (Table 3, compound 10 μM): 0%; Viable cell count (Table 3, compound 10 μM): 0 cell; mCherry-positive rate (Table 3, compound 10 μM): 0%
C[C@H]1[C@@H](C)O[C@@H]2O[C@@]3(C)CC[C@H]4[C@H](C)CC[C@@H]1[C@@]24OO3 [Example 1-6, (3R,5aS,6R,8aS,9R,10R,12R,12aR)-3,6,9,10-Tetramethyldecahydro-12H-3,12-epoxypyrano[4,3-j][1,2]benzodioxepine] | – | – | – | – | – | 34.8% | 147.0 cell | 2.0% | 20.9% | 190.0 cell | 15.6% | 19.8% | 183.5 cell | 24.4% | 17.6% | 215.5 cell | 80.8% | 47.8% | 37.5 cell | 98.4% | –
C[C@@H]1CC[C@H]2[C@@H](C)C(=O)O[C@@H]3O[C@@]4(C)CC[C@@H]1[C@]32OO4 [Example 1-33, artemisinin, reference compound] | 33.2% | 445.5 cell | 49.25% | 18.2% | 1020 cell | 20.2% | 268.5 cell | 28.1% | 11.2% | 309.5 cell | 23.5% | 20.3% | 268.0 cell | 56.8% | 26.1% | 85.0 cell | 81.8% | 16.1% | 178.0 cell | 78.8% | mCherry-positive rate (Table 3, compound 0.3 μM): 28.15%; KLS-positive rate (Table 3, compound 1 μM): 46.85%; Viable cell count (Table 3, compound 1 μM): 728 cell; mCherry-positive rate (Table 3, compound 1 μM): 60.85%; KLS-positive rate (Table 3, compound 3 μM): 50.8%; Viable cell count (Table 3, compound 3 μM): 229 cell; mCherry-positive rate (Table 3, compound 3 μM): 81.3%; KLS-positive rate (Table 3, compound 10 μM): 52%; Viable cell count (Table 3, compound 10 μM): 282.5 cell; mCherry-positive rate (Table 3, compound 10 μM): 80%
C[C@H]1[C@@H](C(N)=O)O[C@@H]2O[C@@]3(C)CC[C@H]4[C@H](C)CC[C@@H]1[C@@]24OO3 [Example 1-15, (3R,5aS,6R,8aS,9R,10S,12R,12aR)-3,6,9-Trimethyldecahydro-12H-3,12-epoxypyrano[4,3-j][1,2]benzodioxepine-10-carboxamide] | – | – | – | – | – | 6.8% | 379.0 cell | 7.1% | 13.0% | 540.0 cell | 13.3% | 17.9% | 258.0 cell | 47.3% | 40.0% | 111.0 cell | 87.1% | 54.9% | 42.5 cell | 97.6% | –
CC(=O)N[C@@H]1O[C@@H]2O[C@@]3(C)CC[C@H]4[C@H](C)CC[C@@H]([C@H]1C)[C@@]24OO3 [Example 1-10, N-[(3R,5aS,6R,8aS,9R,10R,12R,12aR)-3,6,9-Trimethyldecahydro-12H-3,12-epoxypyrano[4,3-j][1,2]benzodioxepin-10-yl]acetamide] | – | – | – | – | – | 19.7% | 717.5 cell | 6.5% | 23.1% | 387.0 cell | 16.5% | 32.9% | 325.5 cell | 9.1% | 33.1% | 579.0 cell | 38.5% | 53.1% | 46.5 cell | 99.3% | –
CC(=O)O[C@@H]1O[C@@H]2O[C@@]3(C)CC[C@H]4[C@H](C)CC[C@@H]([C@H]1C)[C@@]24OO3 [Example 1-14, (3R,5aS,6R,8aS,9R,10S,12R,12aR)-3,6,9-Trimethyldecahydro-12H-3,12-epoxypyrano[4,3-j][1,2]benzodioxepin-10-yl acetate] | – | – | – | – | – | 20.6% | 497.5 cell | 0.2% | 30.1% | 340.0 cell | 9.0% | 47.3% | 119.0 cell | 22.1% | 50.0% | 1.0 cell | 100.0% | 0.0% | 0.5 cell | 0.0% | –
